Read-outs that look alike come from different tables or passages of the source.
Legend:
gliomas = tested on: gliomas; design: method as in PMID 25074541; settings: systemically delivered; cited from earlier work
[1] = Cytotoxicity dose response, U87; assay type: cell-based; settings: human, U87 (glial) cells, unit not given in Table S3, drug concentrations in µM, read-out: CC50 U87 cell line
Protocol: (§1) B. mandrillaris trophozoites were seeded at 4,000 amoebae per well into opaque and clear-bottom 96-well plates (Corning). Homogenous populations of B. mandrillaris cysts generated by galactose induction were seeded at 4,000 amoebae per well into opaque 96-well plates. HFF-1 (fibroblast), H4 (glial), U87 (glial), HEK-293T (kidney), and Hep-G2 (liver) cells were seeded at 3,000 cells per well in opaque 96-well plates 24 h prior to addition of drug. Stocks of nitroxoline (Selleck Chemicals) were dissolved in 100% DMSO at 10 mM. Stocks of azithromycin (Selleck Chemicals), pentamidine isethionate (Selleck Chemicals), and miltefosine (Selleck Chemicals) were dissolved in water at 10 mM. Drug stocks were serially diluted in water to generate 12-point dilution series, which were then used to treat assay wells containing B. mandrillaris or human cells at final concentrations ranging from 0.39 µM to 400 µM in 100-µl total well volumes. Control wells were treated with vehicle (DMSO or water) at concentrations corresponding to the final vehicle concentrations in each drug dilution series. After incubation for 72 h, 50 µl of CTG was added to all assay wells. Luminescence was measured with a Promega GloMax-Multi+ plate reader 2, 4, and […] after CTG addition. All dose-response experiments were performed with at least three independent biological replicates. IC50 values were determined as previously described. To quantify encystment under treated and untreated conditions, amoebae in individual assay wells were resuspended thoroughly and the number of cysts and number of trophozoites in 10-µl samples were counted by the use of a hemocytometer (SKC, Inc.). Cysts and trophozoites are morphologically distinct, making them simple to distinguish with bright-field microscopy (example images are shown in Fig. S1 in the supplemental material). Encystment assays were performed with three independent biological replicates.

[2] = Cytotoxicity dose response, Hep-G2; assay type: cell-based; settings: human, Hep-G2 (liver) cells, unit not given in Table S3, drug concentrations in µM, read-out: CC50 Hep-G2 cell line
Protocol: as §1

[3] = tested on: HFF-1 human fibroblast cells; experiment: Secondary screening dose response, toxicity to HFF-1 cells; assay type: cell-based; settings: Homo sapiens, HFF-1; 72 h; approximated from dose-response curves; read-out: HFF1 IC50
Protocol: (§2) Secondary screening of hit compounds consisted of dose-response experiments to measure the toxicity of each compound to B. mandrillaris trophozoites, HFF-1 human fibroblast cells, and H4 human neuroglioma cells. Four 384-well plates were prepared prior to addition of drug as follows: one opaque plate (Corning) seeded with 3,000 HFF-1 cells per well in 60 µl complete media, one opaque plate seeded with 2,000 H4 cells per well in 60 µl complete media, one opaque plate containing 30 µl axenic media, and one clear plate (Corning) containing 30 µl axenic media. Opaque plates were used to measure the viability of trophozoites in the CTG assay, and clear plates were used for microscopic examination of cyst formation. HFF-1 and H4 plates were seeded 24 h prior to drug addition. The selected primary screen hits were added from 10 mM DMSO stocks into wells of all four test plates to reach final concentrations ranging from 0.06 µM to 30 µM (10 concentrations, 2-fold serial dilution). Negative-control wells received concentrations of DMSO corresponding to the amount of DMSO in each tested drug well (reaching a maximum of 0.3% DMSO). B. mandrillaris trophozoites were resuspended in axenic media and added to the plates containing drug dilutions in axenic media at a density of 3,000 amoebae per well in a final volume of 60 µl media. All plates were incubated for 72 h. Throughout the incubation period, the clear-bottom B. mandrillaris plate was monitored for large-scale changes to population encystment in response to drug treatment. After the 72-h incubation, 30 µl of CTG reagent was added to all wells of the opaque assay plates and luminescence was measured with a Promega GloMax-Multi+ plate reader at 2, 4, and 8 h after CTG addition.

[4] = Cytotoxicity, mean of all cell lines; assay type: cell-based; settings: human, U87, H4, HEK-293T, HFF-1 and Hep-G2 cell lines (mean of all), unit inferred
Protocol: as §1

[5] = Cytotoxicity dose response, H4; assay type: cell-based; settings: human, H4 (glial) cells, unit not given in Table S3, drug concentrations in µM, read-out: CC50 H4 cell line
Protocol: as §1

[6] = design: method as in PMID 3309832, PMID 118941, PMID 7251741; settings: adults, 600 to 800 mg/day, cited from earlier work
[7] = tested on: B. mandrillaris trophozoites; experiment: Primary human brain tissue explant infection model; assay type: cell-based, Balamuthia mandrillaris; settings: 35 μM simultaneously with inoculation, removed at 20 h, evaluated at 96 h
B. mandrillaris [8] = experiment: Encystment assay, counts of cysts and trophozoites; assay type: cell-based, Balamuthia mandrillaris; settings: 72 h of treatment with different drug concentrations
Protocol: as §1

[9] = tested on: B. mandrillaris trophozoites; experiment: Nitroxoline structure-activity relationship dose response (CellTiter Glo); assay type: cell-based, Balamuthia mandrillaris; settings: Balamuthia mandrillaris, 72 h, 8-point dose response in triplicate; read-out: IC50
[10] = tested on: B. mandrillaris trophozoites; experiment: Drug combination dose matrices, trophozoite viability (EOHSA model); assay type: cell-based, Balamuthia mandrillaris; settings: 72 h
Protocol: Experiments measuring the effect of drug combinations were carried out similarly to the dose-response experiments described above. B. mandrillaris trophozoites were seeded into opaque 96-well plates (Corning) at a density of 4,000 amoebae per well and then treated with concentrations of nitroxoline that differed across the rows of each plate and with concentrations of either miltefosine or pentamidine isethionate that differed down the columns to generate 7-by-7 dose combination matrices. Final drug concentrations ranged from 0.5 to 10 µM, from 10 to 100 µM, and from 1 to 100 µM for nitroxoline, miltefosine, and pentamidine isethionate, respectively. After incubation with drug or vehicle was performed for 72 h, CTG was added to all assay wells and luminescence was measured with a Promega Glomax-Multi+ plate reader. The percent effect of each drug combination was calculated as the reduction in luminescence value relative to vehicle-only controls. The additive effect of drug combinations was assessed using the excess over highest single agent (EOHSA) model ([76], [77]). […] Drug combination experiments were performed with three independent replicates.

B. mandrillaris cysts = experiment: Dose response, viability of preformed galactose-induced cysts; assay type: cell-based, Balamuthia mandrillaris; settings: 72 h
Protocol: Following the findings of a previous study, encystment of B. mandrillaris was induced by galactose exposure ([74]). B. mandrillaris trophozoites were grown to log phase in axenic media, and galactose was added to reach a final concentration of 12% (vol/vol). Amoebae were cultured in the induction medium until trophozoites were no longer observed (approximately 10 days). Galactose-induced cysts transition back to trophozoites after approximately 3 days of incubation in galactose-free axenic medium. Therefore, all assays with cysts were completed in the induction medium. […] All incubation steps for B. mandrillaris growth were carried out at 37°C with 5% CO2.
as §1

B. mandrillaris [11] = experiment: Recrudescence assay on HFF-1 monolayer after drug treatment; assay type: cell-based, Balamuthia mandrillaris
[12] = Cytotoxicity dose response, HEK-293T; assay type: cell-based; settings: human, HEK-293T (kidney) cells, unit not given in Table S3, drug concentrations in µM, read-out: CC50 HEK-293T cell line
Protocol: as §1

[13] = Cytotoxicity dose response, HFF-1; assay type: cell-based; settings: human, HFF-1 (fibroblast) cells, unit not given in Table S3, drug concentrations in µM, read-out: CC50 HFF-1 cell line
Protocol: as §1

[14] = tested on: B. mandrillaris trophozoites; experiment: Side-by-side dose response, trophozoite viability; assay type: cell-based, Balamuthia mandrillaris; settings: 72 h
Protocol: as §1

[15] = tested on: B. mandrillaris trophozoites; experiment: Secondary screening dose response, B. mandrillaris trophozoites; assay type: cell-based, Balamuthia mandrillaris; settings: Balamuthia mandrillaris, 72 h, read-out: B. mandrillaris IC50
Protocol: as §2

[16] = tested on: H4 human neuroglioma cells; experiment: Secondary screening dose response, toxicity to H4 cells; assay type: cell-based; settings: Homo sapiens; 72 h; approximated from dose-response curves
[17] = tested on: B. mandrillaris trophozoites; experiment: microbe, parasite or virus in culture; assay type: cell-based, Balamuthia mandrillaris; settings: Balamuthia mandrillaris, 72 h

O=[N+]([O-])c1ccc(O)c2ncccc12 [Nitroxoline, 8-hydroxy-5-nitroquinoline]
efficacy against gliomas (gliomas): exhibits efficacy against gliomas in mice
CC50 at 72 h [1]: 24.9 µM
CC50 at 72 h [2]: 9.3 µM
IC50 [3]: > 30 µM
CC50 at 72 h [4]: 19.3 µM
CC50 at 72 h [5]: 5.6 µM
maximal plasma concentrations (Cmax) [6]: ~5600 ng/mL
Cmax ([6]; read-out: maximal plasma concentrations (Cmax)): ~30 µM
protection of human brain tissue explants [7]: do not show signs of tissue damage or loss of cell density
encystment response (B. mandrillaris [8]): increase in both the total number and the proportion of cysts
IC50 [9]: 4.77 µM
Percent inhibition of B. mandrillaris viability ([10]; Fig S2A, nitroxoline 0.5 µM alone): -4%
Percent inhibition of B. mandrillaris viability ([10]; Fig S2A, nitroxoline 2 µM alone): 28%
Percent inhibition of B. mandrillaris viability ([10]; Fig S2A, nitroxoline 2.5 µM alone): 31%
Percent inhibition of B. mandrillaris viability ([10]; Fig S2A, nitroxoline 3 µM alone): 34%
Percent inhibition of B. mandrillaris viability ([10]; Fig S2A, nitroxoline 5 µM alone): 92%
Percent inhibition of B. mandrillaris viability ([10]; Fig S2A, nitroxoline 10 µM alone): 93%
Percent inhibition of B. mandrillaris viability ([10]; Fig S2B, nitroxoline 0.5 µM alone): 0%
Percent inhibition of B. mandrillaris viability ([10]; Fig S2B, nitroxoline 2 µM alone): 28%
Percent inhibition of B. mandrillaris viability ([10]; Fig S2B, nitroxoline 2.5 µM alone): 33%
Percent inhibition of B. mandrillaris viability ([10]; Fig S2B, nitroxoline 3 µM alone): 32%
Percent inhibition of B. mandrillaris viability ([10]; Fig S2B, nitroxoline 5 µM alone): 91%
Percent inhibition of B. mandrillaris viability ([10]; Fig S2B, nitroxoline 10 µM alone): 92%
IC50 (B. mandrillaris cysts; Balamuthia mandrillaris, read-out: IC50, B. mandrillaris cysts, preformed cysts, 12% galactose induction medium, 72 h): 15.5 µM
IC50 (B. mandrillaris cysts; preformed cysts, 12% galactose induction medium, read-out: IC50, B. mandrillaris cysts): 15.5 µM
Mean no. of days for host cell clearance ± SE (B. mandrillaris [11]; 3.5 µM for 72 h, then drug-free coculture with HFF-1, 28-day experiment): 15.33 ± 0.67 days
Mean no. of days for host cell clearance ± SE (B. mandrillaris [11]; 7 µM for 72 h, then drug-free coculture with HFF-1, 28-day experiment): 19 ± 0.58 days
Mean no. of days for host cell clearance ± SE (B. mandrillaris [11]; 14 µM for 72 h, then drug-free coculture with HFF-1, 28-day experiment): 22 ± 2.08 days
Mean no. of days for host cell clearance ± SE (B. mandrillaris [11]; 28 µM for 72 h, then drug-free coculture with HFF-1, NRT = no recovery of trophozoites or host cell destruction observed through 28 days): NRT^a
concentration that completely eliminated B. mandrillaris populations (B. mandrillaris [11]; 72 h treatment, no recovery after 28 days of coculture): 28 µM
CC50 at 72 h [12]: 4.9 µM
CC50 at 72 h [13]: 51.8 µM
IC99, B. mandrillaris trophozoite viability [14]: 7.54 µM
IC50 ([14]; Balamuthia mandrillaris, read-out: IC50, B. mandrillaris trophozoites, 72 h): 2.8 µM
IC50 ([14]; read-out: IC50, B. mandrillaris trophozoites): 2.84 µM
IC50 [15]: 11 µM
IC50 [16]: 7 µM
inhibition at 20 µM [17]: 100%

From paper PMC6212833 (mBio, 2018)
